Columns and labels:
A549 = test: Alamar Blue viability assay; format: cell-based; conditions: Homo sapiens, Lung, P53 Wt, 96-hour exposure
Method: (§1) Cultures of HeLa cells were exposed for 96 hours to different concentrations of IHSF 001, 058 and 115, and viability was assessed using an Alamar Blue assay. It is noted that this standard assay examines attached cells only. This subject will be discussed in more detail below. […] The relative cytotoxicity of the compounds appears to parallel their respective activities as inhibitors of HSF1 function (inhibition of RLuc expression in Z74 cells). We next examined the viability of different human cancer cell lines subsequent to a 96-hour exposure to compound 115 (Table 3). HSF1 was reported as being required for optimal p21 expression and for p53-mediated cell cycle arrest in response to genotoxins. Logan, I. R. et al. (2009) Nucleic Acids Res. 37: 2962-2971. […] Cell lines of different p53 status were included in the experiments in order to find out whether sensitivity to IHSF 115 was related to p53 status. […] No effect of p53 status could be discovered. It is noted that a number of additional HSF inhibitors of the present disclosure were tested and found to effectively reduce the viability of human cancer cells.

MNNG/HOS = test: Alamar Blue viability assay; format: cell-based; conditions: Homo sapiens, Osteosarcoma, P53 Mut, 96-hour exposure
Method: as §1

HepG2 = test: Alamar Blue viability assay; format: cell-based; conditions: Homo sapiens, Hepatocellular, P53 Wt, 96-hour exposure
Method: as §1

HCC1143 = test: Alamar Blue viability assay; format: cell-based; conditions: Homo sapiens, Breast, P53 Mut, 96-hour exposure
Method: as §1

BT-474 = test: Alamar Blue viability assay; format: cell-based; conditions: Homo sapiens, Breast, P53 Mut, 96-hour exposure
Method: as §1

NCI-H2228 = test: Alamar Blue viability assay; format: cell-based; conditions: Homo sapiens, Lung, P53 Wt, 96-hour exposure
Method: as §1

MDA-MB-231 = test: Alamar Blue viability assay; format: cell-based; conditions: Homo sapiens, Breast, P53 Mut, 96-hour exposure
Method: as §1

THP-1 = test: Alamar Blue viability assay; format: cell-based; conditions: Homo sapiens, Acute monocytic leukemia, P53 Mut, 96-hour exposure
Method: as §1

MDA-MB-453 = test: Alamar Blue viability assay; format: cell-based; conditions: Homo sapiens, Breast, P53 Mut, 96-hour exposure
Method: as §1

NCI-H460 = test: Alamar Blue viability assay; format: cell-based; conditions: Homo sapiens, Lung, P53 Wt, 96-hour exposure
Method: as §1

IM9 = test: Alamar Blue viability assay; format: cell-based; conditions: Homo sapiens, IM-9, Multiple myeloma, P53 Wt, 96-hour exposure
Method: as §1

SK-N-SH = test: Alamar Blue viability assay; format: cell-based; conditions: Homo sapiens, Neuroblastoma, P53 Wt, 96-hour exposure
Method: as §1

U-2 OS = test: Alamar Blue viability assay; format: cell-based; conditions: Homo sapiens, U2OS, Osteosarcoma, P53 WT, 96-hour exposure
Method: as §1

OV56 = test: Alamar Blue viability assay; format: cell-based; conditions: Homo sapiens, Ovarian carcinoma, P53 Mut, 96-hour exposure
Method: as §1

sNF02.2 = test: Alamar Blue viability assay; format: cell-based; conditions: Homo sapiens, Malignant peripheral nerve sheath, P53 Wt, 96-hour exposure
Method: as §1

sNF96.2 = test: Alamar Blue viability assay; format: cell-based; conditions: Homo sapiens, Malignant peripheral nerve sheath, P53 Wt, 96-hour exposure
Method: as §1

PC-3 = test: Alamar Blue viability assay; format: cell-based; conditions: Homo sapiens, Prostate, P53 Null, 96-hour exposure
Method: as §1

BT-20 = test: Alamar Blue viability assay; format: cell-based; conditions: Homo sapiens, Breast, P53 Mut, 96-hour exposure
Method: as §1

MCF-7 = test: Alamar Blue viability assay; format: cell-based; conditions: Homo sapiens, MCF7, Breast, P53 Wt, 96-hour exposure
Method: as §1

T47D = test: Alamar Blue viability assay; format: cell-based; conditions: Homo sapiens, Breast, P53 Mut, 96-hour exposure
Method: as §1

MG-63 = test: Alamar Blue viability assay; format: cell-based; conditions: Homo sapiens, Osteosarcoma, P53 Mut, 96-hour exposure
Method: as §1

RPMI 8266 = test: Alamar Blue viability assay; format: cell-based; conditions: Homo sapiens, RPMI8266, Multiple myeloma, P53 Mut, 96-hour exposure
Method: as §1

SK-OV-3 = test: Alamar Blue viability assay; format: cell-based; conditions: Homo sapiens, Ovarian carcinoma, P53 Mut, 96-hour exposure
Method: as §1

CAMA-1 = test: Alamar Blue viability assay; format: cell-based; conditions: Homo sapiens, Breast, P53 Mut, 96-hour exposure
Method: as §1

PEA1 = test: Alamar Blue viability assay; format: cell-based; conditions: Homo sapiens, Ovarian carcinoma, P53 Mut, 96-hour exposure
Method: as §1

Saos-2 = test: Alamar Blue viability assay; format: cell-based; conditions: Homo sapiens, Osteosarcoma, P53 Null, 96-hour exposure
Method: as §1

NCI-H1975 = test: Alamar Blue viability assay; format: cell-based; conditions: Homo sapiens, Lung, P53 Wt, 96-hour exposure
Method: as §1

NCI-H3122 = test: Alamar Blue viability assay; format: cell-based; conditions: Homo sapiens, Lung, P53 Wt, 96-hour exposure
Method: as §1

U266B1 = test: Alamar Blue viability assay; format: cell-based; conditions: Homo sapiens, Multiple myeloma, P53 Mut, 96-hour exposure
Method: as §1

MM.1R = test: Alamar Blue viability assay; format: cell-based; conditions: Homo sapiens, Multiple myeloma, P53 Wt, 96-hour exposure
Method: as §1

A673 = test: Alamar Blue viability assay; format: cell-based; conditions: Homo sapiens, Ewing’s sarcoma, P53 Mut, 96-hour exposure
Method: as §1

[1] = tested on: KD 13 (HeLa-derived, HSF1 siRNA); test: Alamar Blue assay of HSF1-deficient KD 13 line versus KD control cells; format: cell-based, human; conditions: 96 hours exposure, different concentrations
Method: FIG. 7. (A) Upper panel: HSF1 levels in cultures of KD control and KD13 cells as assayed by WB. Lower panel: number of alive KD control and KD13 cells after 1-4 days of culture as determined by Trypan Blue dye exclusion. […] Cell viability was assayed by Alamar Blue assay.
The most severely HSF1-deficient lines grew slowly. FIG. 7 reports on the properties of one such line, KD 13, which was compared to control lentivirus-transduced cells (KD control). The WB in FIG. 7A (upper panel) confirms that the KD 13 line is essentially devoid of HSF1. The lower panel compares growth of the cell line with that of the control cells (the graph showing numbers of Trypan Blue-excluding (live) cells after 1-4 days of culture). We conclude that the KD 13 line has partially overcome its HSF1 dependency.

CN(C(=O)/C=C/C1=NCCCO1)c1ncc(-c2cccnc2)s1 [IHSF 115, (E)-3-(5,6-Dihydro-4H-[1,3]oxazin-2-yl)-N-methyl-N-(5-pyridin-3-yl-thiazol-2-yl)-acrylamide]
EC50 (A549): 18.8 µM
EC50 (MNNG/HOS): 9.2 µM
EC50 (HepG2): 5.2 µM
EC50 (HCC1143): 4.8 µM
EC50 (BT-474): 5.2 µM
EC50 (NCI-H2228): 12.8 µM
EC50 (MDA-MB-231): 2.2 µM
EC50 (THP-1): 6.9 µM
EC50 (MDA-MB-453): 4.2 µM
EC50 (NCI-H460): 9.4 µM
EC50 (IM9): 2.3 µM
EC50 (SK-N-SH): 4 µM
EC50 (U-2 OS): 5.2 µM
EC50 (OV56): 6.8 µM
EC50 (sNF02.2): 8.4 µM
EC50 (sNF96.2): 4.2 µM
EC50 (PC-3): 4 µM
EC50 (BT-20): 8.2 µM
EC50 (MCF-7): 5.2 µM
EC50 (T47D): 4.4 µM
EC50 (MG-63): 4.6 µM
EC50 (RPMI 8266): 3.6 µM
EC50 (SK-OV-3): 15 µM
EC50 (CAMA-1): 3.5 µM
EC50 (PEA1): 4.1 µM
EC50 (Saos-2): 8 µM
EC50 (NCI-H1975): 5.1 µM
EC50 (NCI-H3122): 11 µM
EC50 (U266B1): 3.9 µM
EC50 (MM.1R): 1.7 µM
EC50 (A673): 1.9 µM
resistance of KD 13 line versus control lentivirus-transduced cells to killing [1]: more resistant to killing
